The values below come from paper PMC11508362, “Discovery of Novel Thiazole-Based SIRT2 Inhibitors as Anticancer Agents: Molecular Modeling, Chemical Synthesis and Biological Assays” (International Journal of Molecular Sciences, 2024).

“Also recorded” adds a separate entry of the source.

Series [1] has as its target T1, SIRT2 (Homo sapiens, UniProt Q8IXJ6).
T1 sequence (Q8IXJ6 1-389): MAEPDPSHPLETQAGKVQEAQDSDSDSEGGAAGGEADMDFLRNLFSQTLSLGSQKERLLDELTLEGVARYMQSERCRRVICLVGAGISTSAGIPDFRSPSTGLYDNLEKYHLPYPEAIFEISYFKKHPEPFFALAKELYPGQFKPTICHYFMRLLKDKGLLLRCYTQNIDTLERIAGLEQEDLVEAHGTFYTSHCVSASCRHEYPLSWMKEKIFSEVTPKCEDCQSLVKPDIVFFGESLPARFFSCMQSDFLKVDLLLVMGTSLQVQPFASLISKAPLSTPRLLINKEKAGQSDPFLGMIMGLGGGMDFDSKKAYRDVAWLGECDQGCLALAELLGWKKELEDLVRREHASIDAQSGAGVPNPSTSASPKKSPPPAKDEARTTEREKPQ
In words: SIRT2 deacetylase activity, recombinant SIRT2 with acetylated peptide H3K9Ac and NAD+.
Description: The effect of urea derivatives on SIRT2 deacetylase activity was evaluated upon incubation of recombinant SIRT2 with an acetylated peptide (H3K9Ac, a peptide acetylated on Lys 9) and the co-substrate NAD^+.

Series [2] relates to acetylation of α-tubulin in SCC13 cells. In words: Western blot of α-tubulin acetylation (endogenous SIRT2 inhibition) in SCC13 cells. The format is cell-based. The settings on record: 5 μM, 48 h, Western blot normalized to total α-tubulin. As for the experimental part:
To confirm that the effect of 5a on cell viability was due to its ability to inhibit the endogenous SIRT2, Western blot analyses were performed to quantify the level of acetylation of α-tubulin, a direct substrate of SIRT2 enzymatic activity.
SCC13 cells (3 × 10^5) were seeded in 60 mm Petri dishes and left to adhere overnight. The day after, the medium was replaced with a medium containing 5a at a final concentration of 5 µM or the respective amount of DMSO vehicle. After 48 h, the medium was removed, and cells were washed with PBS and lysed by scraping with 100 µL of lysis buffer (25 mM Tris-HCl, pH 7.8; 2 mM DTT; 2 mM EDTA, 10% glycerol; 1% Triton® X-100). The lysate was clarified by centrifugation, and the protein concentration was measured using the Bradford assay. Twenty µg of proteins were loaded on a 10% polyacrylamide gel and then transferred to a nitrocellulose membrane. The membrane was saturated with 5% skim milk powder solution in TBS-Tween 0.05%. To determine the acetylation of alpha-tubulin, membranes were incubated with an anti-acetyl-alpha-tubulin antibody (#5335, Cell Signaling Technology, Danvers, MA, USA), whose signal was normalized on the total amount of alpha-tubulin (#2125, Cell Signaling Technology).

The target of series [3] is T2, SIRT6 (Homo sapiens, UniProt Q8N6T7). In words: SIRT6 deacetylation reaction promoted by the SIRT6 activator MDL-800, recombinant protein. Format: biochemical. The settings on record: 150 µM, with SIRT6 activator MDL-800, SD always ≤10%. As for the experimental part: (§1) Next, the selectivity of the compounds for SIRT2 against other sirtuins was also determined. The compounds were tested at the final concentration of 150 µM in the deacetylation reaction of SIRT1, SIRT3 and SIRT6, with this last one being promoted by the addition of the SIRT6 activator MDL-800 and also in the depalmitoylation reaction of SIRT6.
T2 sequence (Q8N6T7 whole entry, species assumed): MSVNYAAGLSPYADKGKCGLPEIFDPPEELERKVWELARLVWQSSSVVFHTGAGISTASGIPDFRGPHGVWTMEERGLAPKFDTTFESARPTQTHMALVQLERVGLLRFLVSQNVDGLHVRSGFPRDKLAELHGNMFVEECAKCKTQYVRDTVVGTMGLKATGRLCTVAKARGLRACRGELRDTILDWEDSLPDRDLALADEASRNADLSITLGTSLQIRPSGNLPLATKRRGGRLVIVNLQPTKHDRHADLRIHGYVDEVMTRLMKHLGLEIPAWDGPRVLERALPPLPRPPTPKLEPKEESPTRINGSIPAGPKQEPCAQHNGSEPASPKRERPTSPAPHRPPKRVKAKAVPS

In the next series the test system is SCC13 cells. In words: Cell viability by sulforhodamine B assay, SCC13. Format: cell-based. The settings on record: 48 h, increasing concentrations. The protocol:
(§2) SCC13 and HaCaT cell lines were a kind gift from Prof. Alessio Nencioni (University of Genoa), and cells were maintained in Gibco™ Keratinocyte SFM 1X medium supplied with prequalified human recombinant epidermal growth factor 1–53 (EGF 1–53) and bovine pituitary extract (BPE, CAT# 17005042) (Thermo Fisher Scientific, Milano, Italy), with 50 IU/mL penicillin and 50 μg/mL streptomycin and cultured as in [36]. SCC13 and HaCaT cells were treated for 48 h with the putative SIRT2 inhibitor, and cell viability was analyzed by a sulforhodamine B assay. Briefly, 5000 cells/well were seeded in 96-well plates in triplicate and allowed to adhere overnight. The day after, the medium was replaced with fresh medium containing increasing concentrations of 5a. After 48 h, TCA was added, and samples were processed as previously described.

Series [4] deals with T2, SIRT6. Description: SIRT6 depalmitoylation reaction (H3K9Palm), recombinant protein. The format is biochemical. Conditions: 150 µM, SD always ≤10%. The protocol: as §1
The target in the next series is T3, SIRT1 (Homo sapiens, UniProt Q96EB6).
T3 sequence (Q96EB6 1-747): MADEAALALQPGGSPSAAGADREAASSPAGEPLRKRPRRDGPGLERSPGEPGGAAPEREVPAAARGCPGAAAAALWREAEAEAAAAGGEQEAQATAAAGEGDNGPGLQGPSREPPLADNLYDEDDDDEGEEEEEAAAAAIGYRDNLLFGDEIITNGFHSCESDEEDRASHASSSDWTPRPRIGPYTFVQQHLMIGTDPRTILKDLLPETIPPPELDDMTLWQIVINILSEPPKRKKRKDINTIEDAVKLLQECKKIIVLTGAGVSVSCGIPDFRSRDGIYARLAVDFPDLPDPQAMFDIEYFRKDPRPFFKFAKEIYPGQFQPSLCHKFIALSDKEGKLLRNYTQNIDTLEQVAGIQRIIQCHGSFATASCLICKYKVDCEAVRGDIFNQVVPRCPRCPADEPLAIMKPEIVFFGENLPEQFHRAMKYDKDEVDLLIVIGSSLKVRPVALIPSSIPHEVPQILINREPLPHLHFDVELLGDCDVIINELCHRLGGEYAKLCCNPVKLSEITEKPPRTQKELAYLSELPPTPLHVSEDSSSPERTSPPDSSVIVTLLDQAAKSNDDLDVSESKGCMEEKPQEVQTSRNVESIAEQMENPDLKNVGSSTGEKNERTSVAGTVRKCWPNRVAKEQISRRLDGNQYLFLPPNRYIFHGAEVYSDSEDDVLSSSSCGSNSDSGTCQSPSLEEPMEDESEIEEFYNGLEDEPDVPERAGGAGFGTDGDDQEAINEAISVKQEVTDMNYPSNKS
In words: SIRT1 deacetylation reaction, recombinant protein. The settings on record: deacetylase activity, SD always ≤10%. The format is biochemical. The protocol:
as §1

The target of another series is T4, SIRT3 (Homo sapiens, UniProt Q9NTG7).
T4 sequence (Q9NTG7 1-399): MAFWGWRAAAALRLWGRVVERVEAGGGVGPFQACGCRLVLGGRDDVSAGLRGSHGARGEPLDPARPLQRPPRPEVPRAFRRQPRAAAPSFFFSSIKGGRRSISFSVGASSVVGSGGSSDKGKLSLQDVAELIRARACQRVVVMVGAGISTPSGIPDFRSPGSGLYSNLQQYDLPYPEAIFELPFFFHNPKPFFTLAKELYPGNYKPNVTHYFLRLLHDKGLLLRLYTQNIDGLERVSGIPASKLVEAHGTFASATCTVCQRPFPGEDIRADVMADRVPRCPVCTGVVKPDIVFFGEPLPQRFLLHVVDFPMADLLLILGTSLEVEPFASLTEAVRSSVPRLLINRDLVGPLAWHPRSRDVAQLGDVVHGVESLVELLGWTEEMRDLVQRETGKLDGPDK
In words: SIRT3 deacetylation reaction, recombinant protein. Format: biochemical. The settings on record: deacetylase activity, SD always ≤10%. The protocol: as §1

The test system of a further series is HaCaT cells. Format: cell-based. As for the experimental part: as §2
Series [5] deals with T1, SIRT2. The arrangement: method as in PMID 37765125. The settings on record: at 150 μM; cited from earlier work.

Turning to `CCOC(=O)c1sc(NC(=O)Nc2cccc(OC)c2)nc1-c1ccc(Br)cc1` [Compound 5a, Ethyl4-(4-bromophenyl)-2-(3-(3-methoxyphenyl)ureido)thiazole-5 carboxylate], the IC50 on SIRT2 [1] stood at 9 ± 2 µM. Also, the inhibition at 150 µM at SIRT2 [1] (read-out: % Inhibition SIRT2 (at 150 μM)) stood at 98 ± 5%; on SIRT1, 100%; at SIRT3, 36%. The “level of α-tubulin acetylation vs control cells” value in series [2] is “increases α-tubulin acetylation; also recorded: increased levels of alpha-tubulin acetylation”. At SIRT6 [3], the “% Inhibition SIRT6 (Deacetylase)” value is given as “ni”. In addition, the “cell death / toxicity (cell viability, SRB assay)” value in the series on SCC13 cells is reported as “concentration-dependent toxicity; also recorded: concentration-dependent cell death”. At SIRT6 [4], the “% Inhibition SIRT6 (Depalmiotoylase)” value was “ni”. Further, the “toxicity (cell viability, SRB assay)” value in the series on HaCaT cells is listed as “not on the normal keratinocyte cell line HaCaT”.

Take `CCc1ccc(Nc2nc(-c3ccc(Cl)cc3)cs2)cc1SC` [Compound T1]: the SIRT2 inhibition percentage at SIRT2 [5] is on record as 100%.
